Reference: BindingDB's records for doi:10.1021/acs.jnatprod.0c01036 (University of Illinois At Chicago, 2021)
pKi: −log10 of the molar value.

Molecular target: Kappa-type opioid receptor (Homo sapiens, UniProt P41145)
Test: Displacement of [3H]-U69593 from human kappa opioid receptor expressed in U2OS cells by radioligand binding assay

Chain of Kappa-type opioid receptor (P41145 whole entry): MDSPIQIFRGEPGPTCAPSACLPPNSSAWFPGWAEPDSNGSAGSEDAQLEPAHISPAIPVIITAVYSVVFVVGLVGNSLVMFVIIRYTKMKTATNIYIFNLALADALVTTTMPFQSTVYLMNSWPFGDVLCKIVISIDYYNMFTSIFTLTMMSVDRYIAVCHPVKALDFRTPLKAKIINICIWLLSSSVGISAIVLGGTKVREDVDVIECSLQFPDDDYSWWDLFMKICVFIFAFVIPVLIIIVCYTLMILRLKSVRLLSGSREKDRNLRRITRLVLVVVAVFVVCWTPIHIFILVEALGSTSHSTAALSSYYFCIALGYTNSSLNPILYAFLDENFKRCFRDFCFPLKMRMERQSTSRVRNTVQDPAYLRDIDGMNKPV

C/C=C1/CN2CC[C@@]34C(=Nc5ccccc53)C(C(=O)OC)[C@H]1C[C@H]24 (stereo partly specified)
pKi: 7.05
